Experimental data: patent US5486511A, “4-amino-17β-(cyclopropyloxy)androst-4-en-3-one, 4-amino-17β-(cyclopropylamino)androst-4-en-3-one and related compounds as C17-20 lyase and 5α-reductase” (Merrell Dow Pharmaceuticals Inc., priority 1994, dated 1996)

Assays:
[1] = molecular target: T1, human lyase (Homo sapiens, UniProt P05093); test: Inhibition of human steroid C17,20 lyase (testicular microsomes); type: biochemical
T1 construct: microsomes were isolated from human, cynomolgus monkey, dog, rat or athymic nude mouse testicular tissue; from tissue; host or cells: human testis microsomes (therapeutic orchiectomies)
T1 sequence (P05093 1-508): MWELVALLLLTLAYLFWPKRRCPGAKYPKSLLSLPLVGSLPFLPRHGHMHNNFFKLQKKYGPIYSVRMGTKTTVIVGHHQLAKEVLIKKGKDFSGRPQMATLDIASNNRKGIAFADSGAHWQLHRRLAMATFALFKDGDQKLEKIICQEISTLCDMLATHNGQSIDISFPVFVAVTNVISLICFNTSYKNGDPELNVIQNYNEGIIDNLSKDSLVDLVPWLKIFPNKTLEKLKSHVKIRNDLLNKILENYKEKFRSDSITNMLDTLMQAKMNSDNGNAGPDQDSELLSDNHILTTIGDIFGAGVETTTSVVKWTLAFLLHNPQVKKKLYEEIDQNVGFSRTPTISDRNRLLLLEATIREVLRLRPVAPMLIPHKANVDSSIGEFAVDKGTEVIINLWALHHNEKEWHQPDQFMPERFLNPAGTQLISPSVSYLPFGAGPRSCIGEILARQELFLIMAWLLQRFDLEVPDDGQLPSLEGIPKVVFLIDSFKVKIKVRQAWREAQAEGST
Procedure: (§1) The activity of the present compounds as inhibitors of steroid C17,20 lyase was established using microsomal preparations of the steroid C17,20 lyase enzyme from human or laboratory animal testes. Human testes used for this purpose were obtained from therapeutic orchiectomies. Specifically, microsomes were isolated from human, cynomolgus monkey, dog, rat or athymic nude mouse testicular tissue. The compound to be tested was dissolved in dimethyl sulfoxide and diluted in 0.05M potassium phosphate buffer to give the desired concentrations of the test compound. The potassium phosphate buffer was at pH 7.4 for the human, monkey and dog lyase assays and at pH 7.2 for the rat and athymic nude mouse lyase assays. Assays also contained 1 mM NADPH, 5 mM glucose-6-phosphate, 1 IU/ml glucose-6-phosphate dehydrogenase (an NADPH regenerating system) and microsomal protein in a total volume of 0.2 mL. Control assays contained all components including dimethyl sulfoxide, but with no test compound. All assays were performed in duplicate. For determination of time dependent C17,20 lyase inactivation, the test compound was incubated with 20 to 60 μg/ml microsomal protein, buffer, and the NADPH regenerating system described above at 34° C. for 0 or 40 minutes. Aliquots (180 μl) were then removed and assayed for enzyme activity by addition to tritiated steroid substrate plus unlabeled steroid substrate to give a 200 μl total assay volume, and were subsequently incubated at 34° C. for 6 minutes. For determination of reversible inhibition by the test compound, the reaction was initiated by addition of substrate. The radiolabeled substrate used for human, cynomolgus monkey and dog lyase was [7-^3 H]-17α-hydroxypregnenolone, 11.2 Ci/mmole, 0.2 μCi total activity per assay. Unlabeled 17α-hydroxypregnenolone was added to give a total concentration of 1.0 μM or 0.3 μM for the human and monkey enzymes, and 0.08 μM for the canine enzyme. […] The radiolabeled substrate used for the rodent enzymes were [1,2-^3 H]-17α-hydroxyprogesterone (40-57 Ci/mmol; 0.2 μCi per assay). Unlabeled 17α-hydroxyprogesterone was added to give a total concentration of 0.1 μM for the rat enzyme (Km =0.1 μM) and 0.03 μM (Km =0.03 μM) for the athymic nude mouse enzyme. The total assay volume was 200 μl. The complete assay was incubated at 34° C. for 6 minutes. Each reaction was stopped by the addition of 5 ml of chloroform:methanol (2:1). Carrier steroids representing substrate and products and 0.8 ml of water were also added at this time. The carrier steroids for the human, monkey and dog lyase assays were 17α-hydroxypregnenolone, dehydroepiandrosterone and androstenediol. Carrier steroids for the rodent lyase assays were 17α-hydroxyprogesterone, androstenedione, and testosterone. The steroids were extracted by the method of Moore and Wilson (Methods in Enzymol., eds. O'Malley, B. W. and Hardman, J. G. 36, 1975, p. 466-474), the organic phase containing the steroids was evaporated using nitrogen gas, the residues dissolved in 18% tetrahydrofuran (v/v) in hexane, and the steroids were separated by HPLC on a Si60 (5 um) column (250×4 mm) using a gradient of 18-22% tetrahydrofuran (v/v) in hexane. Radioactivity in the steroid peaks was measured by a Radiomatic Model HS Flo-One detector.
The enzyme activity for each incubate was calculated from the percent conversion of substrate to products, and the results were expressed as percent inhibition of control. […] The Ki and kinact for time dependent inhibitors were determined by graphical analysis of Kitz-Wilson plots. When the compounds of the present invention were tested in the above procedure using human lyase, the following results were observed: […]

[2] = molecular target: T2, cynomolgus monkey C17,20 lyase (Macaca fascicularis, UniProt Q2XVA1); test: Inhibition of cynomolgus monkey steroid C17,20 lyase (testicular microsomes), time dependent, Kitz-Wilson; type: biochemical
T2 construct: microsomes were isolated from human, cynomolgus monkey, dog, rat or athymic nude mouse testicular tissue; from tissue; host or cells: cynomolgus monkey testis microsomes
T2 sequence (Q2XVA1 1-508): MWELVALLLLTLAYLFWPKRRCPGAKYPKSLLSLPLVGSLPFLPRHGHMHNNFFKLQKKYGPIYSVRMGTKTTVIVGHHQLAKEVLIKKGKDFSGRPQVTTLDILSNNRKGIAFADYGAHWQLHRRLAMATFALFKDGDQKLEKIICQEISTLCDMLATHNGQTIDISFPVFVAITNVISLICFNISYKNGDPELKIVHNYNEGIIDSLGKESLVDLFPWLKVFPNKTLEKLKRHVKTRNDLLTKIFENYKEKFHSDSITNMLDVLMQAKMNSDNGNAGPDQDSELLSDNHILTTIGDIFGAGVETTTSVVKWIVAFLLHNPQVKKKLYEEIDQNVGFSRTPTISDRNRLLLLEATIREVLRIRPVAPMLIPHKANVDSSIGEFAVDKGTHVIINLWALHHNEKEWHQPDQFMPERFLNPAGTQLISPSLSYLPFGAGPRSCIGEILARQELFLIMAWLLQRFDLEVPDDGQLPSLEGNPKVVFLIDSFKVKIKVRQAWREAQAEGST
Procedure: as §1, with “Carrier steroids representing substrate and products and 0.8 ml of water were also added at this time. The carrier steroids for the human, monkey and dog lyase assays were 17α-hydroxypregnenolone, dehydroepiandrosterone and androstenediol. Carrier steroids for the rodent lyase assays were 17α-hydroxyprogesterone, androstenedione, and testosterone. The steroids were extracted by the method of Moore and Wilson (Methods in Enzymol., eds. O'Malley, B. W. and Hardman, J. G. 36, 1975, p. 466-474), the organic phase containing the steroids was evaporated using nitrogen gas, the residues dissolved in 18% tetrahydrofuran (v/v) in hexane, and the steroids were separated by HPLC on a Si60 (5 um) column (250×4 mm) using a gradient of 18-22% tetrahydrofuran (v/v) in hexane.” left out
The enzyme activity for each incubate was calculated from the percent conversion of substrate to products, and the results were expressed as percent inhibition of control. […] The Ki and kinact for time dependent inhibitors were determined by graphical analysis of Kitz-Wilson plots. […]

SMILES	inhibition at 1 µM ([1]; preincubation 0 min)	inhibition at 1 µM ([1]; preincubation 40 min)	inhibition at 10 µM ([1]; preincubation 0 min)	inhibition at 10 µM ([1]; preincubation 40 min)	Ki [2]	kinact [2]
C[C@]12CC[C@H]3[C@@H](C=CC4=C(N)C(=O)CC[C@@]43C)[C@@H]1CC[C@@H]2OC1CC1 [Compound 1, 4-Amino-17β-(cyclopropyloxy)androsta-4,6-dien-3-one]	69%	84%	95%	98%	339 nM	0.0009 s⁻¹
C[C@]12CC[C@H]3[C@@H](CCC4=C(N)C(=O)CC[C@@]43C)[C@@H]1CC[C@@H]2OC1CC1 [Compound 2, 4-Amino-17β-(cyclopropyloxy)androst-4-en-3-one]	79%	86%	96%	99%	286 nM	0.0007 s⁻¹
